Laboratory results from US3931197A, “Substituted piperidine derivatives” (Richardson-Merrell Inc., priority 1974, dated 1976).

tested on: wheals induced by intradermal injections of 1γ of histamine; test: reduction by 50% of wheals induced by intradermal injections of histamine in guinea pigs; assay type: in vivo; conditions: Cavia porcellus, po, 1 h, orally administered one hour prior to intradermal injection of 1γ histamine, read-out: ED50 (amount of compound required to reduce by 50% wheals induced by intradermal injections of histamine)
Source text: To illustrate the utility of the compounds of this invention the following tabulation indicates the amount of certain representative compounds of this invention required to reduce by 50% wheals induced by intradermal injections of 1γ of histamine into guinea pigs. Each compound was orally administered one hour prior to the histamine injection.

SMILES	ED50 [mg/kg]
CC(C)(C)Cc1ccc(C(=O)CCCN2CCC(C(O)(c3ccccc3)c3ccccc3)CC2)cc1.Cl [4-[4-(α-Hydroxy-α-phenylbenzyl)piperidino]-4'-neopentyl-butyrophenone hydrochloride]	0.5
Cc1ccc(C(O)(c2ccccc2)C2CCN(CCCC(=O)c3ccc(C(C)(C)C)cc3)CC2)cc1.Cl (stereo not drawn) [4'-tert-Butyl-4-[4-[α-hydroxy-α-(p-tolyl)benzyl]piperidino]-butyrophenone hydrochloride]	6
Cl.O=C(CCCN1CCC(C(O)(c2ccccc2)c2ccccc2)CC1)c1ccc2ccccc2c1 [4-[4-(α-Hydroxy-α-phenylbenzyl)piperidino]-1-(2-naphthyl)-butan-1-one hydrochloride]	3.6
Cc1ccc(C(=C2CCN(CCCC(=O)c3ccc(C(C)(C)C)cc3)CC2)c2ccccc2)cc1.Cl [4'-tert-Butyl-4-[4-[α-(p-tolyl)benzylidene]piperidino]-butyrophenone hydrochloride]	~10
Cl.O=C(CCCN1CCC(C(O)(c2ccccc2)c2ccccc2)CC1)c1ccc(C2CCCC2)cc1 [4'-Cyclopentyl-4-[4-(α-hydroxy-α-phenylbenzyl)piperidino]-butyrophenone hydrochloride]	2.5
CC(C)(C)c1ccc(C(=O)CCCN2CCC(C(O)(c3ccccc3)c3ccc(Cl)cc3)CC2)cc1.Cl (stereo not drawn) [4'-tert-Butyl-4-[4-[α-hydroxy-α-(p-chlorophenyl)benzyl]-piperidino]butyrophenone hydrochloride]	27
